{
  "source": "ChEMBL document CHEMBL5465560",
  "about": "“Selectivity Literature for EUbOPEN Chemogenomic Library” (2024)",
  "key": {"[1]": {"target": "Homeodomain-interacting protein kinase 3 (Homo sapiens, UniProt Q9H422)", "sequence (Q9H422 whole entry, looked up)": "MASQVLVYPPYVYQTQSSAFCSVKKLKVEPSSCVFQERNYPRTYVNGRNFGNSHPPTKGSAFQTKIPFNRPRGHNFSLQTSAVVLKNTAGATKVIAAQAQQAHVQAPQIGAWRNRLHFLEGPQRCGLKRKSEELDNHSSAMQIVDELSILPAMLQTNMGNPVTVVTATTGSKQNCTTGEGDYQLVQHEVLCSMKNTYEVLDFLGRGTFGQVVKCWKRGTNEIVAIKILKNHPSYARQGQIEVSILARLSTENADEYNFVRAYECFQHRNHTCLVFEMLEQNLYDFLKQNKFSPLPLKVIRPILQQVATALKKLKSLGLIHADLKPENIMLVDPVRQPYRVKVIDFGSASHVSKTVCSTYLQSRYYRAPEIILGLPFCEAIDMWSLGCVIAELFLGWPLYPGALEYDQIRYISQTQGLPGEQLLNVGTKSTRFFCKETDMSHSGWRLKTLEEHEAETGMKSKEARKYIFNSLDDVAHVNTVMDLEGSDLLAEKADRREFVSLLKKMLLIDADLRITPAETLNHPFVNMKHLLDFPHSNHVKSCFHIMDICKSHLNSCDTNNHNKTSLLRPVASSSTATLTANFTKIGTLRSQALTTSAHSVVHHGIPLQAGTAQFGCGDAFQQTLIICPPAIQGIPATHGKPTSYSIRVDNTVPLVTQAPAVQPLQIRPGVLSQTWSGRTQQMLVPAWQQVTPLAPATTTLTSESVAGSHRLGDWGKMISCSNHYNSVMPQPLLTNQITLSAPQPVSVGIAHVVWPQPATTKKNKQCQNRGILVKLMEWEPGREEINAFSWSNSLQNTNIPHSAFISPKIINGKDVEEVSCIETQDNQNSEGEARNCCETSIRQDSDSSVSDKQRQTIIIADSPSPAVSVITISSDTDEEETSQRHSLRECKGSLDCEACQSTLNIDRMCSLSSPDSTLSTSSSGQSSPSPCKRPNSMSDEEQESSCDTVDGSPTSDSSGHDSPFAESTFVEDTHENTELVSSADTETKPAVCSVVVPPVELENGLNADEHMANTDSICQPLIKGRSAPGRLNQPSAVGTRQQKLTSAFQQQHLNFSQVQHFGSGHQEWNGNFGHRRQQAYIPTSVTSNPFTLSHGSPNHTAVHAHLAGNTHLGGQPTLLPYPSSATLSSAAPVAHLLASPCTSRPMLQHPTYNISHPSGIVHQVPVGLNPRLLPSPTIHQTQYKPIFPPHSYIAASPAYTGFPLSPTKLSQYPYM", "assay": "Selectivity interaction (KinomeScan (DiscoverX)) EUB0000229b HIPK3", "settings": "at 10 µM"}, "[2]": {"target": "Activin receptor type-1-like (Homo sapiens) (UniProt P37023)", "sequence (P37023 whole entry)": "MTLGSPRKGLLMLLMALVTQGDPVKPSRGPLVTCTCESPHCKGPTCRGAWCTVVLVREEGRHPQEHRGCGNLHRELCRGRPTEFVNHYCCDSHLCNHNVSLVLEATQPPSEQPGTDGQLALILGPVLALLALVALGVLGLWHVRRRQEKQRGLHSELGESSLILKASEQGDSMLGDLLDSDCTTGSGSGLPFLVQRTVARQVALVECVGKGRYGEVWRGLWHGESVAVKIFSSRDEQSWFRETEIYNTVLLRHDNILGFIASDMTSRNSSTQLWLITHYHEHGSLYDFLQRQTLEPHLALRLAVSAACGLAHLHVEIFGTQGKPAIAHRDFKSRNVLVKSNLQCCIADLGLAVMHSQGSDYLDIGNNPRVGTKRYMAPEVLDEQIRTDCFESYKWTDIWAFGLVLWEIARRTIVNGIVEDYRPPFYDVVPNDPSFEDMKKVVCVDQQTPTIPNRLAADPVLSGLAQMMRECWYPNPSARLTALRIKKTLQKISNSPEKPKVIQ", "assay": "Selectivity interaction (KinomeScan (DiscoverX)) EUB0000655a ACVRL1", "settings": "at 10 µM"}, "[3]": {"target": "Interleukin-1 receptor-associated kinase 1 (Homo sapiens) (UniProt P51617)", "sequence (P51617 whole entry, looked up)": "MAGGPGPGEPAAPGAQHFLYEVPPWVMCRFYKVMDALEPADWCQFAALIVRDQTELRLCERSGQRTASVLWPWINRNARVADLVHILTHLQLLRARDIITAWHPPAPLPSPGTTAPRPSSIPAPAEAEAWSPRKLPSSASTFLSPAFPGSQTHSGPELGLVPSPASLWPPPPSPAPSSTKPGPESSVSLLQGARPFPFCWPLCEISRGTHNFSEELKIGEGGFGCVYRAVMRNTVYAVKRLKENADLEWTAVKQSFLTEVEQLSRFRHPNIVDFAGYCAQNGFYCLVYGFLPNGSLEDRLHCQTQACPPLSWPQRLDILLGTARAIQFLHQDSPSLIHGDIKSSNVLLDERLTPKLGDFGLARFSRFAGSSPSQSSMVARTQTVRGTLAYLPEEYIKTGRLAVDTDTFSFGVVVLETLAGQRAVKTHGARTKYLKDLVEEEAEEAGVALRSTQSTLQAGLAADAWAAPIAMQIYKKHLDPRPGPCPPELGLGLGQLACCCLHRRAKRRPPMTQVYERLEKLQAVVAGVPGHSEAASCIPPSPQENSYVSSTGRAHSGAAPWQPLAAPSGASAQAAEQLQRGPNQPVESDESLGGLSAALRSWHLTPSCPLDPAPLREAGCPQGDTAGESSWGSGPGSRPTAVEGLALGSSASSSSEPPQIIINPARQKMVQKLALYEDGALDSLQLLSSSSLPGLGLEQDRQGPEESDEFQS", "assay": "Selectivity interaction (ProQinase) EUB0000171b IRAK1"}, "[4]": {"target": "BMP-2-inducible protein kinase (Homo sapiens) (UniProt Q9NSY1)", "assay": "Selectivity interaction (KinomeScan (DiscoverX)) EUB0001079a BMP2K", "settings": "at 1 µM"}, "[5]": {"target": "CDK6/cyclin D2 (Homo sapiens) (UniProt Q00534+P30279)", "assay": "Selectivity interaction (Millipore kinase profiler) EUB0000124b CDK6", "assay_type": "protein-complex assay", "settings": "at 10 µM"}, "[6]": {"target": "E3 ubiquitin-protein ligase TRIM33 (Homo sapiens) (UniProt Q9UPN9)", "assay": "Selectivity interaction (Bromodomain panel (DSF asssay)) EUB0000270b TRIM33"}, "[7]": {"target": "T1, Interleukin-1 receptor-associated kinase 3 (Homo sapiens) (UniProt Q9Y616)", "T1 sequence (whole entry)": "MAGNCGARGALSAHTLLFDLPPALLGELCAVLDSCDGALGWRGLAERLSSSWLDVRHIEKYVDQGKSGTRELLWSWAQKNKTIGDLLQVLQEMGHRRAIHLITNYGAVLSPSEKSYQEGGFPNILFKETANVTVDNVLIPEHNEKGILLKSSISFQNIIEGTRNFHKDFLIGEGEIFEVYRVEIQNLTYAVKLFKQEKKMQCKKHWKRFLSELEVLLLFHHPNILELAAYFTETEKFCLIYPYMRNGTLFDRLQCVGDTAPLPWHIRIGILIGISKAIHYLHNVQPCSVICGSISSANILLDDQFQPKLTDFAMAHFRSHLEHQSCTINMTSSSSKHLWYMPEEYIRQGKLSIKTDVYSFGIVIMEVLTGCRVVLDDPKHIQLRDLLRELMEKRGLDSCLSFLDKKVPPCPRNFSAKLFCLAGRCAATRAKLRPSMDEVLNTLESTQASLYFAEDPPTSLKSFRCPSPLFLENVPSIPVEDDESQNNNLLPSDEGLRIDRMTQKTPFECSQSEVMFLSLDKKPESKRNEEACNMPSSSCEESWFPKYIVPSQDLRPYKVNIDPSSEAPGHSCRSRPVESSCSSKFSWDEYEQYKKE", "assay": "Selectivity interaction (ActivX KiNativ screen (kinase selectivity in THP-1 cell lysates)) EUB0000639a IRAK3", "assay_type": "subcellular", "settings": "lysate, at 1 µM"}, "[8]": {"assay": "Selectivity interaction (KinomeScan (DiscoverX)) EUB0000607a PKNB", "settings": "at 10 µM"}, "[9]": {"target": "T2, Tyrosine-protein kinase Tec (Homo sapiens) (UniProt P42680)", "T2 sequence (whole entry)": "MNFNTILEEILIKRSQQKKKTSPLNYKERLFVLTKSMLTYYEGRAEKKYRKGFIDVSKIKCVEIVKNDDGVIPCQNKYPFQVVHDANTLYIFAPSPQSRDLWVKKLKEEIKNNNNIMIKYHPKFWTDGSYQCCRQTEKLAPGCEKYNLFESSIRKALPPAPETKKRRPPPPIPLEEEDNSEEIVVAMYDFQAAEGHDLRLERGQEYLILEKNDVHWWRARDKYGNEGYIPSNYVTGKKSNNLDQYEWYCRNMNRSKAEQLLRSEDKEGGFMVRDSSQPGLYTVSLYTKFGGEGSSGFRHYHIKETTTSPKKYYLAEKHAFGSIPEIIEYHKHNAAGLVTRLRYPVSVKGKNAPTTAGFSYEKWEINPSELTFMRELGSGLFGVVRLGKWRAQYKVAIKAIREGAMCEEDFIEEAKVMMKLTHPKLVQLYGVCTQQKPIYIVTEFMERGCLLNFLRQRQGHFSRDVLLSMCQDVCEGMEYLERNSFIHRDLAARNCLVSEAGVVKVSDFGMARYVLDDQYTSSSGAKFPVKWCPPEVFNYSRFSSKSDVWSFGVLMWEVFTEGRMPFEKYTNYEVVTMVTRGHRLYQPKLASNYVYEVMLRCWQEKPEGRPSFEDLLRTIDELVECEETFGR", "assay": "Selectivity interaction (KinomeScan (DiscoverX)) EUB0001049a TEC", "settings": "at 1 µM"}, "[10]": {"system": "Leucine-rich repeat serine/threonine-protein kinase 2 (Homo sapiens), Q5S007 [G2019S]", "sequence (Q5S007 whole entry G2019S)": "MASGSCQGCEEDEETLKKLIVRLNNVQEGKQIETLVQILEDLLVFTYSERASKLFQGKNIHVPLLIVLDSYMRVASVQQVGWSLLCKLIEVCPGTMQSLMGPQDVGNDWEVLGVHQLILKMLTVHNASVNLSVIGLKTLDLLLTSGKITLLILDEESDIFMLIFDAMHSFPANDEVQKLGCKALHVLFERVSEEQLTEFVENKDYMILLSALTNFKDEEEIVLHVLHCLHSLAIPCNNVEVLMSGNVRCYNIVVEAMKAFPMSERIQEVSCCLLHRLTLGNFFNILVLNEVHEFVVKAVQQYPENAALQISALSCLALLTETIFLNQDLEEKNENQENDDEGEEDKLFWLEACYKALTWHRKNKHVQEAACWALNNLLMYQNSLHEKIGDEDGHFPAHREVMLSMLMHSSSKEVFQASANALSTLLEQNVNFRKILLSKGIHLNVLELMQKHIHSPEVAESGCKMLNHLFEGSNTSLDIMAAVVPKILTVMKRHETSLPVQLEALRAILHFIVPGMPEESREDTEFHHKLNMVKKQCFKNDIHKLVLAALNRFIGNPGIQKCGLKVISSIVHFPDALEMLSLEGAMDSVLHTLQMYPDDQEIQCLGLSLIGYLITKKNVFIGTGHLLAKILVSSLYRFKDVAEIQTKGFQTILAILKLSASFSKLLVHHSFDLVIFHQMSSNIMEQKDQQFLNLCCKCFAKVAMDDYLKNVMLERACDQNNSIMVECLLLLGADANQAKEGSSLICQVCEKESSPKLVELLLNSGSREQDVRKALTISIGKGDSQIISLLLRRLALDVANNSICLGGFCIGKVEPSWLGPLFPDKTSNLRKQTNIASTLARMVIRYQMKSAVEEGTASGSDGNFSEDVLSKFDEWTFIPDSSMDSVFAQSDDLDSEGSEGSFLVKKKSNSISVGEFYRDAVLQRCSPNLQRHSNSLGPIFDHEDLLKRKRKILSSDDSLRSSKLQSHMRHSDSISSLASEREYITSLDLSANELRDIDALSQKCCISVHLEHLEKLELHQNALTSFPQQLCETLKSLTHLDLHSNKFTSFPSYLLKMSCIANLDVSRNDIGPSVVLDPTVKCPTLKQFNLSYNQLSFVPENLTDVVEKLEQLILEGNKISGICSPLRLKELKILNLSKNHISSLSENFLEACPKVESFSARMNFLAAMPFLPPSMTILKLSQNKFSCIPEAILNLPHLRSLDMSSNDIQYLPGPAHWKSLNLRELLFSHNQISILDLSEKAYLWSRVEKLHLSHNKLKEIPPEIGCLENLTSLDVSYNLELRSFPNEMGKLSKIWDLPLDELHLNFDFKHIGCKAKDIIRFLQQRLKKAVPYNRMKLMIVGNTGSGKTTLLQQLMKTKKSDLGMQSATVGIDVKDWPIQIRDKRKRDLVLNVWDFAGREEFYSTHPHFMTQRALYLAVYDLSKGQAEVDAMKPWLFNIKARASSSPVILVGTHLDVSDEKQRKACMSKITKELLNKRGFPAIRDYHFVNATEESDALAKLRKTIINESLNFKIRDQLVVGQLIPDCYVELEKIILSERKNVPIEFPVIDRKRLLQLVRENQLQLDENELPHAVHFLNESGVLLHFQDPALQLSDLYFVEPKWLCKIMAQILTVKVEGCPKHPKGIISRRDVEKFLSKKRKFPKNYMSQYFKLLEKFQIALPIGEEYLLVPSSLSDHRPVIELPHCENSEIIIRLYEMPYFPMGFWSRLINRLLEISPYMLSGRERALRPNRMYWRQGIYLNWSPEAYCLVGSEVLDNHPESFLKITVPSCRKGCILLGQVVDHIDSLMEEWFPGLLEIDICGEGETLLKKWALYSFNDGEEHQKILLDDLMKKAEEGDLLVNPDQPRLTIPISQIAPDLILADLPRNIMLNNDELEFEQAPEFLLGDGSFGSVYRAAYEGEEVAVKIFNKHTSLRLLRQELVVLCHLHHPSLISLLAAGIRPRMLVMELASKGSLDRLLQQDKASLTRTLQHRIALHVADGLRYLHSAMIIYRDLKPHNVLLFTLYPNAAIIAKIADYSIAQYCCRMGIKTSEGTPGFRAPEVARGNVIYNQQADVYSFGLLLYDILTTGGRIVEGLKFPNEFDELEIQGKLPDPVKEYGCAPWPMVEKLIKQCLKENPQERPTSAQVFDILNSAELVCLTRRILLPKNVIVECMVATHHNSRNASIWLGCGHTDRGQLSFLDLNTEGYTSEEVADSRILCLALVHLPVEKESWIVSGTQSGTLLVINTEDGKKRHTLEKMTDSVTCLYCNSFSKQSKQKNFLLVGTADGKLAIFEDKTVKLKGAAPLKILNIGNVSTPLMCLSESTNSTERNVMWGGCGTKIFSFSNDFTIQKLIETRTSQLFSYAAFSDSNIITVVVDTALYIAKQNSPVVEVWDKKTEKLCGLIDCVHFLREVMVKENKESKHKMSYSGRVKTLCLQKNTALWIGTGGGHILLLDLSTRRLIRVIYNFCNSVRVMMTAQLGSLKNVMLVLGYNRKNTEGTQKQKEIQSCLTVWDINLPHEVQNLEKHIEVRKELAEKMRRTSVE", "assay": "(§1) Selectivity interaction (KinomeScan (DiscoverX)) EUB0000045b LRRK2"}, "[11]": {"target": "Leucine-rich repeat serine/threonine-protein kinase 2 (Homo sapiens, UniProt Q5S007)", "sequence (Q5S007 whole entry)": "as the sequence (Q5S007 whole entry G2019S) above, with S2019G counted along it", "assay": "as §1"}, "[12]": {"target": "TRAF2 and NCK-interacting protein kinase (Homo sapiens) (UniProt Q9UKE5)", "assay": "Selectivity interaction (ActivX KiNativ screen (ex vivo kinase selectivity in human PBMCs)) EUB0001619a TNIK", "assay_type": "cell-based", "settings": "PBMC, at 1 µM"}},
  "data": [
    {"smiles": "COc1cc(N(C)c2ccnc3ccc(C(F)(F)F)cc23)cc(OC)c1OC", "values": [
      {"measurement": "% binding", "setting": "[1]", "result": 81, "unit": "%"}
    ]},
    {"smiles": "CN(C)CCOc1ccc(-c2nc(-c3ccncc3)c(-c3ccc4c(c3)CC/C4=N\\O)[nH]2)cc1", "values": [
      {"measurement": "% of control", "setting": "[2]", "result": 67, "unit": "%"}
    ]},
    {"smiles": "C=CC(=O)Nc1cccc(C(=O)Nc2ccc(Nc3cc(-c4[nH]c(SC)nc4C)ccn3)cc2)c1", "values": [
      {"measurement": "% of control", "setting": "[3]; at 1 µM", "result": 50, "unit": "%"},
      {"measurement": "% of control", "setting": "[3]; at 5 µM", "result": 11, "unit": "%"}
    ]},
    {"smiles": "Nc1cnc(N2CCc3cc(S(=O)(=O)Nc4c(F)cc(Cl)cc4F)cc(N4CCCC4=O)c32)nc1", "note": "[TP-020n]", "values": [
      {"measurement": "% of control", "setting": "[4]", "result": 88, "unit": "%"}
    ]},
    {"smiles": "CC(=O)Nc1cccc(-n2c(=O)n(C3CC3)c(=O)c3c(Nc4ccc(I)cc4F)n(C)c(=O)c(C)c32)c1", "values": [
      {"measurement": "% of control", "setting": "[5]", "result": 107, "unit": "%"}
    ]},
    {"smiles": "Cc1cc(CN)cc(C)c1-c1ncn(C)c1-c1cncn1C", "values": [
      {"measurement": "dTM", "setting": "[6]", "result": -0.48, "unit": "K"}
    ]},
    {"smiles": "CC[C@@H]1[C@H](F)C(=O)N[C@@H]1COc1nccc2cc(C(N)=O)c(OC)cc12", "note": "[ZIMLOVISERTIB]", "values": [
      {"measurement": "% of inhibition", "setting": "[7]", "result": 73, "unit": "%"}
    ]},
    {"smiles": "CNC(=O)Nc1ccc(-c2nc(N3CC4CCC(C3)O4)c3cnn(C4CCC5(CC4)OCCO5)c3n2)cc1", "values": [
      {"measurement": "% of control", "setting": "[8]", "result": 94, "unit": "%"}
    ]},
    {"smiles": "COc1cc(Nc2nc(C)cc(-c3cnn4nc(OC)ccc34)n2)cc(C(F)(F)F)c1", "values": [
      {"measurement": "% of control", "setting": "[9]", "result": 78, "unit": "%"}
    ]},
    {"smiles": "C=CC(=O)Nc1cc(-n2c(=O)ccc3cnc4ccc(-c5ccc(NS(C)(=O)=O)cc5)cc4c32)ccc1C", "values": [
      {"measurement": "% of control", "setting": "[10]; at 1 µM", "result": 100, "unit": "%"},
      {"measurement": "% of control", "setting": "[10]; at 10 µM", "result": 62, "unit": "%"},
      {"measurement": "% of control", "setting": "[11]; at 1 µM", "result": 100, "unit": "%"},
      {"measurement": "% of control", "setting": "[11]; at 10 µM", "result": 100, "unit": "%"}
    ]},
    {"smiles": "N#Cc1cccc(-c2c[nH]c3ncnc(N4CCOCC4)c23)c1", "values": [
      {"measurement": "% of inhibition", "setting": "[12]", "result": 29, "unit": "%"}
    ]}
  ]
}
